Data from patent US11571453B2, “Piper laetispicum extract and preparation method therefor and use thereof” (SUZHOU YI-HUA BIOMEDICAL TECHNOLOGY CO., LTD, priority 2017, dated 2023).

Experiments:
Format in all cases: in vivo
mice = experiment: Light and dark box test in mice; details: 2.0 mg/kg oral, 60 min after dose, 5 min test; n = 10, x ± SD
Experimental: The positive control drug was diazepam. 60 minutes after oral administration, the light and dark box test was implemented. Each mouse is tested for 5 minutes, and each residence time in the light box and the number of shuttles between the light and dark boxes are recorded.

Kunming mice [1] = experiment: Mouse tail hanging test; details: 50 mg/kg/d oral, 14 days, 1 h after last dose; n=10, x ± SD
Experimental: Kunming mice (male, 18-20 g) were randomly divided into 14 groups, each with 10 rats. […] The positive control group was venlafaxine. Continuous administered for 14 days, one time per day. One hour after the last oral administration, the mouse tail hanging test was carried out. The tails of the mice were glued on a wooden bar 50 cm above the table top to make them stand upside down, and the mouse sight was isolated using plates around. The mice would struggle to overcome the abnormal posture, but appear immobile after a period of activity, showing state of despair Duration was 6 minutes, the time of immobility within 6 minutes was recorded.

Wistar rats = experiment: Rat learned helplessness test (conditional avoidance)
Experimental: Wistar rats were selected and randomly grouped into 10 rats in each group. The learned helplessness test model was used in which the corresponding dose of extracts shown as in Table 5 were administered orally by gavage. The positive control was venlafaxine. Continuous administered for 7 days, one time per day. 24 h after the last oral administration, a conditional avoidance test is implemented.

Kunming mice [2] = experiment: Mouse swimming test; details: 50 mg/kg/d oral, 14 days, 1 h after last dose; n=10, x ± SD
Experimental: Kunming mice (male, 18-20 g) were randomly divided into 12 groups, each with 10 rats. Each group was given the corresponding dose of extract as shown in Table 4 and normal saline was used as control. The positive control group was venlafaxine. Continuous administered for 14 days, one time per day. One hour after the last oral administration, the mice were placed into a glass tank of 10×20 cm and water depth of 10 cm (water temperature 25° C.) for a swimming test. The swimming duration was 6 minutes, the time to stop motion within 5 minutes was recorded.

Structure (SMILES) | Number of shuttles (mice) | Time (residence time in the light box) (mice) | Immobility time within 6 min (Kunming mice [1]) [s] | Escape latency (Wistar rats; 30 mg/kg/d oral gavage, 7 days, 24 h after last dose, u test n = 10, x ± SD) [s] | escape latency of the rats, effect in words (Wistar rats; doses of 10, 5, 2.5 mg/kg/d, compared with the model control group P<0.01) | Stop motion within 5 min (Kunming mice [2]) [s]
CN1C(=O)CN=C(c2ccccc2)c2cc(Cl)ccc21 [Diazepam, diazepam] | 14.23 ± 1.06 | 121.23 ± 8.12 |  |  |  | 
COc1ccc(C(CN(C)C)C2(O)CCCCC2)cc1 (stereo not drawn) [Venlafaxine, venlafaxine] |  |  | 60.9 ± 38.5 | 14.15 ± 12.32 | significantly shortened the escape latency | 75.8 ± 19.4
